The values below come from patent US7482329B2, “Single domain TDF-related compounds and analogs thereof” (Thrasos Therapeutics, priority 2002, dated 2009).

“Also recorded” adds a separate entry of the source. Where a SMILES comes first, the peptide text is derived from it.

In one experiment the test system is Smad1 in HK2 cells. The experiment can be described thus: Smad1 accumulation in the nucleus of HK2 cells (Ser-Thr signal transduction). The class given is cell-based, human. Conditions: fluorescent labeling of Smad-1, FIG. 8, FIG. 9. The text has this: Open column is non-inflammation background level of ICAM-1; Black column is the ICAM-1 level following TNF-alpha inflammatory stimulation. […] In the Ser-Thr signaling pathway, the ligand (TDF-1 or TP2.003) bind to both the type 1 receptor (ALK3) and the type 2 receptor (BMPR2) inducing oligomerization of the receptors. The type 2 receptor under goes phosphorylation and then phosphorylates the type 1 receptor, which then phosphorylates one of Smad 1, 5 or 8 (ref. to as Smad1 below). The phosphorylated Smad1 is then picked up by Smad4 and ferried into the nucleus. Thus, detection of the concentration of Smad1 in the nucleus is diagnostic of induction of signal transduction.
Note that in the right hand column, the phase contrast images of the HK2 cells showing close to confluency; the images on the left show fluorescent labeling of Smad-1 in the nucleus of HK2 cells.

Experiment [1] addresses T1, BMPR-2 receptor extra cellular domain (Homo sapiens, UniProt Q13873).
T1 construct: immobilized BMPR-2 receptor extra cellular domain (ECD)
T1 sequence (Q13873 27-150 limits assumed): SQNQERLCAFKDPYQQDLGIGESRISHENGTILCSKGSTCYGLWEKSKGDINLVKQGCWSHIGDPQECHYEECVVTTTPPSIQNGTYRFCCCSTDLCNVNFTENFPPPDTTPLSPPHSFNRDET
As to the kind of experiment: Radio-ligand receptor binding assay, competition with 125I-labeled TDF-1 for BMPR-2. The text has this: (§1) General protocol: These assays are based on competition between ^125I-labeled TDF-1 (BMP-7 or OP-1) and candidate TDFRP compounds or unlabeled TDF-1 for binding to respective receptors (ALK-3, ALK-6 or BMPR-2). In brief, the procedure involves immobilization of receptor on 96 well Removawell plates, blocking the wells with 3% BSA in PBS and subsequently washing the wells. Increasing concentrations of unlabeled TDF-1 or TDFRP compounds or control (unlabeled TDF-1) prepared in binding buffer are then added. Incubate plate for 1 hour at room temperature, and then add a fixed amount of ^125I-labeled TDF-1 (250,000 to 350,000 cpm) to the wells and further incubate in cold (4° C.) for 20 hours. Aspirate the contents of the wells and wash the wells four times with a wash buffer, and count the receptor bound ^125I-labeled TDF-1 in an auto gamma counter. B. HK-2 Cell Culture and Determination of Cytokine Production

Experiment [2] deals with ICAM-1 in HK2 human transformed kidney proximal tubule cells. As to the kind of experiment: ICAM-1 level in HK-2 cell medium after TNF-alpha stimulation (ELISA). Conditions: FIG. 7; for effect on level of ICAM-1 in HK2 cell medium: after TNF-alpha inflammatory stimulation. The class given is cell-based. Here is the method:
The immortalized PTEC-derived HK-2 (Human Kidney-2) cells (ATCC number CRL-2190) were grown in serum-free keratinocyte medium (GIBCO number 17005-042) supplemented with epidermal growth factor (EGF: 5 ng/mL) and bovine pituitary extract (40 ug/mL) for 48 hours as described previously (Ryan et al (1994) Kidney International 45:48-57). Cells were transferred to 24-well plates at a density of 3×10^5 cells per well. After 24 hours, cells were incubated with fresh medium containing TNF-alpha (5 ng/mL) for 20 hours. Controls received medium alone. Then cells were washed twice with fresh culture medium and further incubated with culture medium alone (medium control, and TNF control wells) or TDF-1 at three different concentrations (40, 200 or 1000 ng/mL) or TDFRP compounds at three different concentrations (4, 20 or 100 uM) for sixty hours. During incubation, cells were kept in a 5% CO2 humid atmosphere at 37° C. At the end of the incubation, the media were removed and stored frozen until assayed. The concentrations of IL-6 and sICAM-in culture supernatants were measured by specific ELISA.
Dilute the capture antibody to the working concentration in PBS, pH 7.4 without carrier protein. Add 61 uL of stock antibody (720 ug/mL) to 10.939 mL of PBS, gently vertex. Immediately coat a 96 well microplate (Immulon 4 HBX) with 100 uL per well of the diluted capture antibody. Seal the plate and incubate it overnight in cold (4° C.). (PBS: 8.1 mM Na2HPO4, 1.5 mM KH2PO4, 137 mM NaCl, 2.7 mM KCl, pH 7.4, 0.2 um filtered).
Next day empty the wells and wash the wells three times, each time using 340 uL of wash buffer per well. (wash buffer: PBS, pH 7.4 containing 0.05% Tween-20). Prepare blocking buffer, 35 mL per plate. To prepare blocking buffer, add 0.35 grams of BSA and 1.75 grams of sucrose to 35 mL of PBS, pH 7.4, and mix the contents gently. Add 300 uL of blocking buffer to each well and incubate the plate for a minimum of 1 hour at room temperature. Empty the wells and wash wells three times, each time using 340 uL of wash buffer per well. […]
(An ELISA detects its analyte on a solid surface through an enzyme-linked reagent.)

For experiment [3], the target named is T2, BMPR-1A (ALK3) receptor extra cellular domain (Homo sapiens, UniProt P36894).
T2 construct: immobilized BMPR-1A receptor extra cellular domain (ECD)
The experiment can be described thus: Radio-ligand receptor binding assay, competition with 125I-labeled TDF-1 for ALK-3. The note with it: FIG. 1; cold ligand vs 125I-labeled TDF-1; read-out: ED50, displacing labeled TDF-1 from immobilized BMPR-1A receptor ECD.
Text: as §1

T2 sequence (P36894 24-152 limits assumed, species assumed): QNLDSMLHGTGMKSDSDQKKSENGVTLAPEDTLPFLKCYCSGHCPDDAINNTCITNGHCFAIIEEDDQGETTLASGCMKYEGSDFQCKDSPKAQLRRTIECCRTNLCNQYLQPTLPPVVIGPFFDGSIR

Regarding `CC(C)C[C@H](NC(=O)[C@@H](NC(=O)[C@H](CC(N)=O)NC(=O)[C@H](CO)NC(=O)[C@H](CO)NC(=O)[C@H](CC(=O)O)NC(=O)[C@H](CC(=O)O)NC(=O)[C@H](Cc1ccccc1)NC(=O)[C@H](Cc1ccc(O)cc1)NC(=O)[C@@H](N)CS)C(C)C)C(=O)N[C@@H](CS)C(=O)N[C@@H](CCCCN)C(=O)N[C@@H](CCCCN)C(=O)N[C@@H](Cc1ccc(O)cc1)C(=O)N[C@@H](CCCNC(=N)N)C(=O)N[C@@H](CO)C(=O)O` [SEQ ID NO:45, CYFDDSSNVLCKKYRS] (H-CYFDDSSNVLCKKYRS-OH), in the experiment with Smad1 in HK2 cells, the “Smad1 accumulation in the nucleus / induction of Ser-Thr signal transduction” value is listed as “induces Ser-Thr signal transduction; also recorded: dose dependent response of Smad1 accumulation in the nucleus”. For the same molecule, in experiment [1] (competitive binding, FIG. 4), the “specific binding to BMPR-2 / inhibition of specific binding of labeled TDF-1 to BMPR-2 receptor” value is “specifically binds and does”. In addition, in experiment [2] (HK2 cells, TNF-alpha stimulus, read-out: ED50, lowering of ICAM-1 level), the EC50 was less than 4000 nM. Moreover, the “effect on level of ICAM-1 in HK2 cell medium” value in experiment [2] is “reduces the level of cellular inflammation marker ICAM-1; also recorded: lowers the level of ICAM-1 in a dose dependent manner”.

B1: TDF-1: TDF-1 (BMP-7 or OP-1), bone morphogenetic protein-7; unlabeled control ligand in the binding and cell assays (protein)
chain: STGSKQRSQNRSKTPKNQEALRMANVAENSSSDQRQACKKHELYVSFRDLGWQDWIIAPEGYAAYYCEGECAFPLNSYMNATNHAIVQTLVHFINPETVPKPCCAPTQLNAISVLYFDDSSNVILKKYRNMVVRACGCH
Regarding B1, the “Smad1 accumulation in the nucleus / induction of Ser-Thr signal transduction” value in the experiment on Smad1 in HK2 cells is listed as “induces Ser-Thr signal transduction; also recorded: dose dependent response of Smad1 accumulation in the nucleus”. Also, the EC50 amounted to 6.3 nM in experiment [1] (FIG. 3, read-out: ED50, displacing labeled TDF-1 from immobilized BMPR-2 receptor ECD) and 6.5 nM in experiment [3]. Also, the “effect on level of ICAM-1 in HK2 cell medium” value in experiment [2] is on record as “lowers the level of ICAM-1 in a dose dependent manner”.
